Data from patent publication US11078188B2, “Dihydroquinoxaline bromodomain recognition protein inhibitor, preparation method and use thereof” (SHANGHAI INSTITUTE OF MATERIA MEDICA, CHINESE ACADEMY OF …, priority 2017, dated 2021).

Legend:
BRD4 (I) = BRD4 (I) (Homo sapiens (Human), UniProt O60885); test: Fluorescence anisotropy (FA) binding test on BRD4 (I); conditions: BRD4 (I) 10 nM, fluorescent (+)-JQ1 substrate 5 nM, read-out: BRD4 (1) IC50
Procedure: The binding activity of the compound to BRD4 (I) was tested using a fluorescence anisotropy (FA) method. The principle of FA test is to calculate and analyze the fluorescence polarization values in the horizontal and vertical directions by detecting the change of molecular weight before and after the interaction of fluorescein-labeled small molecules with other molecules. If the equilibrium of the binding between the fluorescently labeled small molecule and macromolecule is established, it will move slowly when excited, and the measured fluorescence polarization value will increase. If the binding between the fluorescently labeled small molecule and the macromolecule is replaced by another ligand, its rotation or flipping speed in the free state will be faster, and the emitted light will be depolarized relative to the plane of the excitation light, and the measured polarized light value will decrease to calculate the fluorescence anisotropy of the sample.
Expression and purification of the BRD4(I) recognition domain: colonies of newly transformed plasmid DNA from E. coli BL21(DE3)-condon plus-RIL cells were cultivated in 50 mL of Terrific Broth medium containing 50 μg/mL kanamycin and 34 μg/mL chloramphenicol at 37° C. overnight (starting culture). The starting culture was then diluted 100-fold in 1 L of fresh TB medium and the cells were grown at 37° C. to an optical density of about 0.8 at OD600 and then the temperature was lowered to 16° C. When the system was equilibrated at 16° C., the optical density at OD600 was approximately 1.2, and protein expression was induced with 0.2 mmol of isopropyl-β-D-thiogalactopyranoside (IPTG) overnight at 16° C. Bacteria were harvested by centrifugation (4000×g, 20 minutes, 4° C.) and stored as a pellet at −80° C. The cells expressing His 6-tagged protein was resuspend in lysis buffer [50 mmol 4-hydroxyethylpiperazineethanesulfonic acid (HEPES), 25° C., pH 7.5, 500 mmol NaCl, 10 mmol imidazole, 5% glycerol and freshly added 0.5 mmol of tris(2-carboxyethyl)phosphine hydrochloride (TCEP) and 1 mmol of phenylmethanesulfonyl fluoride (PMSF)] and lysed at 4° C. using JN 3000PLUS high pressure homogenizer (JNBIO-Guangzhou, China). The lysate was clarified by centrifugation (12,000×g for 1 hour at 4° C.) and applied to a nickel-nitriloacetate agarose column. The column was washed once with 50 mL of wash buffer containing 30 mmol of imidazole. The protein was eluted using imidazole in an elution buffer in a stepwise elution (100-250 mmol imidazole in 50 mmol HEPES, 25° C., pH 7.5, 500 mmol NaCl, 5% glycerol). All fractions were collected and monitored by SDS-polyacrylamide gel electrophoresis (Bio-Rad Criterion TM Precast Gels, 4-12% Bis-Tris, 1.0 mm, from Bio-Rad, CA). After 1 mmol of dithiothreitol (DTT) was added, the eluted proteins were treated with tobacco […] virus (TEV) protease overnight at 4° C. to remove the His6 tag. The protein was concentrated and further purified by size exclusion chromatography on a Superdex 75 16/60 HiLoad gel filtration column. The samples were monitored by SDS-polyacrylamide gel electrophoresis and concentrated to 8-10 mg/mL with gel filtration buffer, 10 mmol Hepes pH 7.5, 500 mM NaCl, 1 mmol DTT, and used for protein binding assays and crystallization.
The fluorogenic substrate was (+)-JQ1 linked to a fluorescent molecule and the working concentration was 5 nM. BRD4 (I) protein had 10 nM of working concentration and the total reaction system was 40 μL. The buffer was 50 mM 4-hydroxyethylpiperazineethanesulfonic acid (HEPES) pH 7.4, 150 mM NaCl, 0.5 mM 3[(3-cholamidopropyl)dimethylammonio]propanesulfonate (CHAPS). […] The final concentration of DMSO was chosen to be 0.2%, taking into account the solubility of the compound and the effect of DMSO on the assay. All measurements were made under these conditions. […]

[1] = test system: human myeloma cells MM.1S; test: MM.1S cell viability, CCK-8 method; type: cell-based; conditions: for IC50: 72 h treatment, CCK-8; for inhibitory activity against the MM.1S cell line (in words): compared with positive (+)-JQ1
Procedure: The MM.1S cell line was tested for cell viability. The test methods were as follows: human myeloma cells MM.1S were treated with compound for 72 h, and the proliferation inhibition effect and degree of the compound were detected by CCK-8 method.

Compound | IC50 (BRD4 (I)) [nM] | IC50 ([1]; Homo sapiens, MM1.S) [nM] | inhibitory activity against the MM.1S cell line (in words) [1] | IC50 [1] [nM]
Cc1ccc(-n2nnnc2-c2ccc3c(c2)N(C2CCCC2)C(C)C(=O)N3C)cc1 (stereo not drawn) [Example 4] | 18.4 |  |  | 
C[C@@H]1C(=O)N(C)c2ccc(-c3nc(C(=O)N4CCN(C)CC4)nn3-c3ccccc3)cc2N1C1CCCC1 [Example 7] | 7.6 |  |  | 
Cc1ccc(-n2nc(C(=O)N3CCN(C)CC3)nc2-c2ccc3c(c2)N(C2CCCC2)[C@H](C)C(=O)N3C)c(C)c1 [Example 9] | 8.2 | 23 ± 7.42 |  | 
CCN1CCN(C(=O)c2nc(-c3ccc4c(c3)N(C3CCCC3)[C@H](C)C(=O)N4C)n(-c3ccc(C)cc3)n2)CC1 [Example 10] | 4.96 | 25.8 ± 0.52 |  | 
Cc1ccc(-n2nc(C(=O)N3CCN(C4CC4)CC3)nc2-c2ccc3c(c2)N(C2CCCC2)[C@H](C)C(=O)N3C)cc1 [Example 11] | 5.08 |  |  | 
Cc1ccc(-n2nc(C(=O)N(C)CCN(C)C)nc2-c2ccc3c(c2)N(C2CCCC2)[C@H](C)C(=O)N3C)cc1 [Example 13] | 8.3 | 22.4 ± 1.4 |  | 
Cc1ccc(-n2nc(C(=O)N3CC4CCC(C3)N4C)nc2-c2ccc3c(c2)N(C2CCCC2)[C@H](C)C(=O)N3C)cc1 [Example 14] | 4.5 | 10.7 ± 1.71 | better inhibitory activity against the MM.1S cell line than the positive (+)-JQ1 | 
Cc1ccc(-n2nc(C(=O)N3CCN(C(C)C)CC3)nc2-c2ccc3c(c2)N(C2CCCC2)[C@H](C)C(=O)N3C)cc1 [Example 15] | 4.2 |  |  | 
Cc1ccc(-n2nc(C(=O)N3CCN(C)CC3)nc2-c2ccc3c(c2)N(C2CCCC2)[C@H](C)C(=O)N3C)cc1F [Example 16] | 4.06 | 29.4 ± 9.3 |  | 
Cc1ccc(-n2nc(C(=O)N3C4CCC3CN(C)C4)nc2-c2ccc3c(c2)N(C2CCCC2)[C@H](C)C(=O)N3C)cc1 [Example 18] | 6.5 | 10.22 ± 0.02 | better inhibitory activity against the MM.1S cell line than the positive (+)-JQ1 | 
Cc1ccc(-n2nc(C(=O)N3CCCN(C)CC3)nc2-c2ccc3c(c2)N(C2CCCC2)[C@H](C)C(=O)N3C)cc1 [Example 19] | 4.6 |  |  | 
Cc1ccc(-n2nc(C(=O)N3CCC4(CCCC4)CC3)nc2-c2ccc3c(c2)N(C2CCCC2)[C@H](C)C(=O)N3C)cc1 [Example 20] | 25.4 |  |  | 
Cc1ccc(-n2nc(C(=O)N3CCC4(CCOC4)CC3)nc2-c2ccc3c(c2)N(C2CCCC2)[C@H](C)C(=O)N3C)cc1 [Example 21] | 7.1 |  |  | 
Cc1ccc(-n2nc(C(=O)N3CCN4CCCC4C3)nc2-c2ccc3c(c2)N(C2CCCC2)[C@H](C)C(=O)N3C)cc1 (stereo partly drawn) [Example 22] | 8.1 |  |  | 
Cc1ccc(-n2nc(C(=O)N3C[C@@H](NC(=O)OC(C)(C)C)C4(CC4)C3)nc2-c2ccc3c(c2)N(C2CCCC2)[C@H](C)C(=O)N3C)cc1 [Example 23] | 9.2 |  |  | 
Cc1ccc(-n2nc(C(=O)N3C[C@@H](N)C4(CC4)C3)nc2-c2ccc3c(c2)N(C2CCCC2)[C@H](C)C(=O)N3C)cc1 [Example 24] | 5.3 |  |  | 
Cc1ccc(-n2nc(C(=O)N3C4CCC3CN(C)C4)cc2-c2ccc3c(c2)N(C2CCCC2)[C@H](C)C(=O)N3C)cc1 [Example 28] | 6.7 |  |  | 
Cc1ccc(-n2nc(C(=O)N3CC4CCC(C3)N4C)cc2-c2ccc3c(c2)N(C2CCCC2)[C@H](C)C(=O)N3C)cc1 [Example 29] | 7.7 |  |  | 
Cc1ccc(-n2c(C)nnc2-c2ccc3c(c2)N(C2CCCC2)[C@H](C)C(=O)N3C)cc1 [Example 32] | 5.1 |  |  | 
Cc1ccc(-n2nc(C(=O)N3CCN(C)CC3)nc2-c2ccc3c(c2)N(C2CC2)C(C)C(=O)N3C)c(C)c1 (stereo not drawn) [Example 34] | 13.9 | 9.11 ± 2.91 | better inhibitory activity against the MM.1S cell line than the positive (+)-JQ1 | 
CCN1CCN(C(=O)c2nc(-c3ccc4c(c3)N(C3CC3)C(C)C(=O)N4C)n(-c3ccc(C)cc3C)n2)CC1 (stereo not drawn) [Example 35] | 14.5 | 15.5 ± 7.42 | better inhibitory activity against the MM.1S cell line than the positive (+)-JQ1 | 
Cc1ccc(-n2nc(C(=O)N3C[C@@H](C)N[C@@H](C)C3)nc2-c2ccc3c(c2)N(C2CC2)C(C)C(=O)N3C)cc1 (stereo partly drawn) [Example 36] | 18.5 | 3.13 | better inhibitory activity against the MM.1S cell line than the positive (+)-JQ1 | 
Cc1ccc(-n2nc(C(=O)N3C[C@@H](C)N[C@@H](C)C3)nc2-c2ccc3c(c2)N(C(C)C)[C@H](C)C(=O)N3C)cc1 [Example 37] | 15.1 | 18.2 | better inhibitory activity against the MM.1S cell line than the positive (+)-JQ1 | 
Cc1ccc(-n2nc(C(=O)N3C[C@@H](C)N[C@@H](C)C3)nc2-c2ccc3c(c2)N(C2COC2)[C@H](C)C(=O)N3C)cc1 [Example 38] | 13.6 |  |  | 
Cc1ccc(-n2nc(C(=O)N3C[C@@H](C)N[C@@H](C)C3)nc2-c2ccc3c(c2)N(C2CCOCC2)[C@H](C)C(=O)N3C)cc1 [Example 39] | 10.3 |  |  | 
Cc1ccc(-n2nc(C(=O)N3C[C@@H](C)N[C@@H](C)C3)nc2-c2ccc3c(c2)N(C2CCC(F)(F)CC2)[C@H](C)C(=O)N3C)cc1 [Example 40] | 16 |  |  | 
Cc1ccc(-n2nc(C(=O)N3C[C@@H](C)N[C@@H](C)C3)nc2-c2ccc3c(c2)N(C2CC(F)(F)C2)[C@H](C)C(=O)N3C)cc1 [Example 41] | 20.1 |  |  | 
Cc1ccc(-n2nc(CN3C[C@@H](C)N[C@@H](C)C3)nc2-c2ccc3c(c2)N(C2CCCC2)[C@H](C)C(=O)N3C)cc1 [Example 47] | 6.7 |  |  | 
(+)-JQ1 [reference compound] |  |  |  | 19.3 ± 9.3
